Experimental data as given in patent publication EP1100821B1, “ANTI-INFLAMMATORY COMPOUNDS DERIVED FROM LIPOCORTIN-1” (priority 1998, dated 2006).
No end group written: not given here.

Key:
A549 cell line = settings: in vitro A549 model; previous publications (Croxtall et al., 1993, 1998); cited from earlier work
PMN migration = assay type: in vivo; settings: peptide s.c. 30 min prior to 1 mg zymosan into 6-day-old air-pouches; PMN counted 4 h after zymosan; n=15; P<0.01
Protocol: Male Swiss Albino mice (20-22 g body weight) were purchased from Interfauna (CFLP strain; Huntingdon, Cambridgeshire, UK) and maintained on a standard chow pellet diet with tap water ad libitum. Animals were used at least one week after arrival.
Air-pouches were formed on the back of the mice by subcutaneous (s.c.) injection of 2.5 ml of air on day 2 and day 5. Three days after the last air-injection (6-day-old air-pouches) 1 mg of zymosan (in 0.5 ml of sterile saline) was injected locally (Perretti et al., 1996). Zymosan was previously boiled for 30 min in phosphate buffered solution (PBS), extensively washed in the same medium and stored at -20°C prior to use.
Four hours after the local injection of zymosan, mice were killed by CO2 exposure and the air-pouches washed with 2 ml of PBS containing ethylenediaminetetracetic acid sodium salt (EDTA; 3 mM) and heparin (25 U/ml). […] The number of PMN was determined, using a Neubauer haematocytometer, after staining (1:10 dilution) with Turk's solution (crystal violet 0.01 % w/v in acetic acid 3% v/v).
Control mice were treated with sterile PBS (100 µl s.c.).

Substance	inhibitory effect on A549 cell function (A549 cell line)	Approximate ED50s (inhibition of PMN migration) (PMN migration) [nmol]
EQEYVQTV [LC118-25]	significant inhibitory activity	–
LC11-12: lipocortin 1 N-terminal fragment, residues 1-12, from previous publications (MAMVSEFLKQAW; UniProt P04083 1-12, looked up, fragment)	inactive	–
Ac-AMVSEFLKQAW [LC12-12, Ac-AMVSEFLKQAW]	–	~110
